Data from patent US10876088B2, “Modular organ microphysiological system with integrated pumping, leveling, and sensing” (Massachusetts Institute of Technology, priority 2016, dated 2020).

Assays:
[1] = test system: hepatocyte-Kupffer cocultured liver MPS; test: Hydrocortisone effect on cocultured liver MPS; assay type: cell-based, human
Procedure: (§1) Metabolic and immunologically competent 3D cryopreserved human hepatocytes and kupffer cells were cocultured.
The secretions of interleukin 6 (IL-6) and tumor necrosis factor alpha (TNFα) of the cocultured liver MPS were measured. The reproducibility of IL-6 response to LPS stimulus was determined. A physiologically-relevant (relatively low) level of cortisol was used in the common media.

[2] = test system: immune-competent liver MPS (hepatocytes and Kupffer cells)
Procedure: as §1
An immune-competent liver MPS model was prepared and studied.

endometrium MPS = test: Drug toxicity in endometrium MPS; assay type: cell-based
Procedure: An exemplary endometrium model of cell culture system in a […]® on the MPS platform includes hydrogel encapsulating stromal cells and epithelial cells on top surface of the hydrogel were cultured on the apical side of the […]®. […] The cell line used was Ishikawa human stage 1 adenocarincoma cell line, which were estrogen and progesterone receptor positive, polarized in matrigel (Chitcholtan et al., Exp Cell Research, (2013)) or functionalized PEG gels, and had low/variable secretion of glycodelin. […] The cell line used was human tert-immortalized cell line (tHESC), which was highly proliferative and stable, had low/variable secretion of prolactin or IGF-BP1 without strong decidualization cues, and could be quiesced in PEG gels.
An endometrium MPS model was prepared and studied.

[3] = test system: immune-competent gut-liver interacted MPS; test: Gut-liver 2-way MPS, tolcapone added to gut ("oral"); assay type: cell-based, human
Procedure: Tolcapone was added to the gut MPS to mimick “oral” administration. Metrics were an volume-weighted average from the 3 media compartments: Signalsystemic=Signalapical, gut*Vapical, gut+Signalbasal, gut*Vbasal, gut+Signalliver*Vliver.

[4] = test system: immune-competent gut MPS (Caco2, HT29-MTX, dendritic cells)
[5] = test system: hepatocyte-Kupffer cell co-cultures; test: LPS stimulus of hepatocyte-Kupffer co-cultures; assay type: cell-based, human
[6] = human, in vivo
7-way MPS platform = test system: 7-way MPS platform
Procedure: The 7-way platform include gut (immune-competent), liver (immune-competent), lung, endometrium, cardiac, brain, and pancreas MPSs, and was assessed for survivability and function over a 3-week period. Each MPS was differentiated or matured in isolation prior to the interaction study. Platforms were run at a systemic flow rate of Qmix=10 mL/day, with flow partitioning. During the medium changes, a basal common medium was used for the gut, lung, liver, and endometrium MPSs, while the new MPS were supplied with their preferred maintenance media. Each basal medium was then allowed to mix throughout the course of the interaction, with media changes at 48-hour intervals. Functionality of each MPS was evaluated every 2-4 days up to 3 weeks, in comparison to isolated MPSs to benchmark the non-interacting MPS functions.

[7] = oral, in vivo; read-out: maximum measured plasma concentration, Cmax; cited from earlier work

Compound: C[C@]12CCC(=O)C=C1CC[C@@H]1[C@@H]2[C@@H](O)C[C@@]2(C)[C@H]1CC[C@]2(O)C(=O)CO [Hydrocortisone]
- CYP450 activity dependence on hydrocortisone levels ([1]; 21 day cultures): sensitive
- differentiated function ([1]; cocultured liver MPS): enhanced differentiated function
- inflammatory response ([1]; cocultured liver MPS): suppressed inflammatory response

Compound: Cc1ccc(C(=O)c2cc(O)c(O)c([N+](=O)[O-])c2)cc1 [Tolcapone]
- cell death ([2]; immune-competent liver MPS): caused cell death
- mitochondrial activity ([2]; immune-competent liver MPS): decreased mitochondrial activity
- loss of function and cellular death (endometrium MPS): loss of function correlating with cellular death
- generic cell death marker [3]: insensitive
- gut and liver function [3]: MPS-specific loss of function
- cell death markers ([3]; MPS-specific markers): suffered from MPS-specific cell death markers
- cell death [4]: severe cellular death
- epithelial barrier integrity / epithelial function [4]: complete loss of epithelial function

Compound: Lipopolysaccharide
- lowest LPS stimulus to which co-cultures were responsive [5]: ≥ 0.01 µg/mL

Compound: O=C(O)Cc1ccccc1Nc1c(Cl)cccc1Cl [Diclofenac, diclofenac]
- liver functions [2]: impaired liver functions
- cell death ([2]; immune-competent liver MPS): cell death was minimal
- loss of function and cellular death (endometrium MPS): loss of function correlating with cellular death
- free drug elimination per cell rate constant [6]: 1.76×10^−10 (cell*min)^−1
- absorption and distribution across MPS compartments (7-way MPS platform): absorbed across the gut epithelial barrier
- unbound intrinsic clearance CL_int(u) (7-way MPS platform; human): 13.90 µL/min
- Cmax [7]: 2 to 6 µM
